PubChem BioAssay (NCI)
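Values below derive from 48-hour exposures of cells grown in 96-well plates, with endpoints linearly interpolated between the two concentrations bracketing the appropriate inhibition level. TGI marks complete inhibition of growth.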

Experiments:
Test in all cases: NCI anticancer screen, dose series, 48 h
SF-295 CNS = tested on: SF-295 CNS
MOLT-4 leukemia = tested on: MOLT-4 leukemia
HOP-92 NSCLC = tested on: HOP-92 NSCLC
OVCAR-8 ovarian = tested on: OVCAR-8 ovarian
UACC-257 melanoma = tested on: UACC-257 melanoma
786-0 renal = tested on: 786-0 renal
TK-10 renal = tested on: TK-10 renal
MDA-MB-435 = tested on: MDA-MB-435
LOX IMVI melanoma = tested on: LOX IMVI melanoma
U251 CNS = tested on: U251 CNS
SF-539 CNS = tested on: SF-539 CNS

Row | Structure (SMILES) | TGI (SF-295 CNS) | TGI (MOLT-4 leukemia) | TGI (HOP-92 NSCLC) | TGI (OVCAR-8 ovarian) | TGI (UACC-257 melanoma) | TGI (786-0 renal) | TGI (TK-10 renal) | TGI (MDA-MB-435) | TGI (LOX IMVI melanoma) | TGI (U251 CNS) | TGI (SF-539 CNS)
1 | CN(C)CCN(C)P12(Oc3ccccc3O1)Oc1c(Cl)c(Cl)c(Cl)c(Cl)c1O2 | > 100 µM | > 100 µM | 92.7 µM | > 100 µM | 85.5 µM | > 100 µM | > 100 µM | > 100 µM | > 100 µM | > 100 µM | 
2 | CCCCOCCOCCOC1=CC(=O)c2c(O)ccc(O)c2C1=O | 3.06 µM | 8.22 µM | 6.28 µM |  | 2.97 µM | 2.95 µM | 5.28 µM | 0.356 µM | 3.39 µM | 3.29 µM | 3.46 µM
3 | Clc1ccc(Nc2nnc(CNc3ccc(-c4nnc(Nc5ccc(Cl)cc5)s4)cc3)s2)cc1 | 84.3 µM | > 100 µM | > 100 µM |  | > 100 µM | 75.1 µM | > 100 µM | > 100 µM |  | > 100 µM | 
4 | CC1(C)C2CCC3CC(CCC#N)CCC3C21C#N (stereo not drawn) | > 100 µM | > 100 µM | > 100 µM | > 100 µM | > 100 µM | > 100 µM | > 100 µM | > 100 µM | > 100 µM | > 100 µM | > 100 µM
5 | [N-]=[N+]=Nc1ccccc1-c1ccccc1[N+](=O)[O-] | > 100 µM | 65.1 µM | > 100 µM | > 100 µM | 71.7 µM | > 100 µM | > 100 µM | > 100 µM | > 100 µM | > 100 µM | 
6 | O=c1[nH]nc(Cc2ccccc2)n1/N=C/c1cccs1 | > 100 µM | > 100 µM |  | > 100 µM | > 100 µM | > 100 µM |  | > 100 µM | > 100 µM | > 100 µM | > 100 µM
7 | CC(C)OC(=O)c1ccc(NCc2cc(O)ccc2O)cc1 | 20.4 µM | 10.3 µM | 5.03 µM | > 21.9 µM | 26.2 µM | 10.3 µM | 14.7 µM | 12.9 µM | 15.9 µM | 17.1 µM | 3.34 µM
8 | Cc1c(C)c2c(c(N)c1C#N)C(=O)N(O)C2=O | > 100 µM | > 100 µM | > 100 µM | > 100 µM | > 100 µM | > 100 µM | > 100 µM | > 100 µM |  | > 100 µM | > 100 µM
9 | CC(C)Oc1c(C2(c3ccccc3)SCCCS2)c(=O)c1=O | > 100 µM | > 100 µM | > 100 µM | > 100 µM | > 100 µM | > 100 µM | > 100 µM | > 100 µM | > 100 µM | > 100 µM | > 100 µM
10 | CSc1ncnc2c1cnn2Cc1cnnn1COCC(O)CO (stereo not drawn) | > 100 µM | > 100 µM |  | > 100 µM | > 100 µM | > 100 µM | > 100 µM | > 100 µM | > 100 µM | > 100 µM | > 100 µM
11 | COc1ccc(Nc2nc3ccccc3n3cccc23)cc1OC | 35.4 µM | 43.3 µM | > 100 µM | 29.5 µM | 29.4 µM | 35 µM | 39 µM | 26.7 µM | 27.4 µM | 35.9 µM | 35 µM
12 | Cc1ccc(/C=C2\Sc3scc(-c4ccccc4)[n+]3C2=O)cc1 | > 70.3 µM | > 72.6 µM | > 49.7 µM | > 56.6 µM | > 62.3 µM | > 56 µM | 53.1 µM | > 44.3 µM | > 54.5 µM | 47.5 µM | > 60.6 µM
13 | COC(=O)C1(NC(=O)C(Cc2ccccc2)N(C(=O)OC(C)(C)C)C(=O)OC(C)(C)C)CCCC1 (stereo not drawn) |  | > 100 µM | > 100 µM | > 100 µM |  | > 10 µM | > 100 µM | > 100 µM | > 100 µM | > 100 µM | > 100 µM
14 | Cc1cccc(C2ON=C(c3ccccc3)N2C23CC4CC(CC(C4)C2)C3)c1 (stereo not drawn) | > 10 µM | > 10 µM | > 10 µM | > 10 µM | > 10 µM | > 10 µM | > 10 µM | > 10 µM | > 10 µM | > 10 µM | > 10 µM
15 | CC(=O)OI1NC(=O)c2ccccc21 | > 100 µM | > 100 µM | > 100 µM | > 100 µM |  | > 100 µM | > 100 µM | > 100 µM | > 100 µM | > 100 µM | 
16 | O=c1[nH]/c(=C/c2ccc3c(c2)OCO3)c(=O)[nH]/c1=C/c1ccc2c(c1)OCO2 | > 10 µM | > 10 µM | > 10 µM | > 10 µM | > 10 µM | > 10 µM | > 10 µM | > 10 µM | > 10 µM | > 10 µM | > 10 µM
17 | C#CC[C@@H]1C(=O)N(Cc2ccc(OC)cc2)[C@@H](C(C)C)C(=O)N1Cc1ccc(OC)cc1 | > 100 µM | 34.7 µM | > 100 µM | > 100 µM | > 100 µM | > 100 µM | > 100 µM | > 100 µM | > 100 µM | > 100 µM | > 100 µM
18 | CC(C)[C@@H]1CC[C@@H](C)C[C@H]1OC(=O)c1c2n(c3ccccc13)C[C@H]1OC(C)(C)O[C@@H]21 | > 100 µM | > 100 µM |  | > 100 µM | > 100 µM | > 100 µM | 60.7 µM | > 100 µM | > 100 µM | 32.5 µM | 
19 | CC(C)=CCCC(C)(OC1OC(CO)C(O)C(O)C1O)C1CCC2(C)C1C(O)CC1C3(C)CCC(O)C(C)(C)C3C(OC3OC(CO)C(O)C(O)C3OC3OC(C)C(O)C(O)C3O)CC12C (stereo not drawn) (tested in a mixture with another compound) | > 75 µM | > 75 µM | > 75 µM | > 75 µM | > 75 µM | > 75 µM | > 75 µM | > 75 µM | > 75 µM | > 75 µM | > 75 µM
20 | CC1=NN=C(C)C1N=Nc1ccc2nc(C)[nH]c2c1 | > 75.1 µM | > 85.9 µM | 65.4 µM | > 100 µM | > 100 µM | > 100 µM | > 100 µM | > 100 µM | > 63.9 µM | > 100 µM | > 88.6 µM
21 | CCC(NC(C)c1ccccc1)C(=O)c1ccc(OCc2ccccc2)c(OCc2ccccc2)c1 (stereo not drawn) | > 100 µM |  | > 100 µM | > 100 µM |  | > 100 µM | > 100 µM | > 100 µM | > 100 µM | > 100 µM | > 100 µM
